Measured values as given in US9062041B2 (Bayer Intellectual Property GmbH, priority 2011, dated 2015).

How the values were obtained:
Format in all cases: cell-based
[1] = target: T1, human PGD receptor (Homo sapiens, UniProt Q13258); assay: cAMP antagonism test on the human prostaglandin D receptor (HTRF cAMP detection); settings: selectivity towards hDP, IC50 measured by cAMP antagonism test
T1 sequence (Q13258 1-359): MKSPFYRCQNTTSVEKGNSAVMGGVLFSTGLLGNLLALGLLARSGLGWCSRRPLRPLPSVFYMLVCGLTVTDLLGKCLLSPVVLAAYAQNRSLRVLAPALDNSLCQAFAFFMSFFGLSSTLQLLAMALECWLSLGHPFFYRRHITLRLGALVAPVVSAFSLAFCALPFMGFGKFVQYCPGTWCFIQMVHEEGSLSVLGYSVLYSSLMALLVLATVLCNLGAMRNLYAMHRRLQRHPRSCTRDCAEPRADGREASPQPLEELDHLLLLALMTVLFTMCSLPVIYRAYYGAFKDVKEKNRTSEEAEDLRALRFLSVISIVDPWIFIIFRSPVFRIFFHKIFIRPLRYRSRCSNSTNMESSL
How it was run: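 Cells pre-mixed with cAMP-d2 were preincubated with compound (0.8 nM–16.5 μM) for 20 min at RT, then stimulated with 3× PGD2 solution (6 nM, in PBS-IBMX) for 30 min at RT. After lysis (20 min), HTRF read at 665/620 nm; antagonism seen as rise in FRET ratio.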

[2] = target: EP4 subtype of the human PGE2 receptor (Homo sapiens, UniProt P35408); assay: cAMP antagonism test on the human EP4 receptor (HTRF cAMP detection); settings: selectivity towards hEP4, IC50 measured by cAMP antagonism test
How it was run: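 Cells expressing human EP4 preincubated 20 min at RT with compound (0.8 nM–16.5 μM), then stimulated with PGE2 (0.3 nM in 3× solution, with IBMX) 60 min at RT. After lysis, cAMP measured by HTRF competition (665/620 nm ratio); antagonism seen as rise in FRET signal.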

[3] = target: EP2 subtype of the human PGE2 receptor (Homo sapiens, UniProt P43116); assay: cAMP antagonism test on the human EP2 receptor (HTRF cAMP detection); settings: hEP2 receptor, read-out: Antagonism hEP2 IC50
How it was run: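 Cells expressing human EP2 preincubated 20 min at RT with compound (0.8 nM–16.5 μM), then stimulated 60 min with PGE2 (3× solution 1.5 nM) in PBS-IBMX. After 20 min lysis, cAMP measured by competitive HTRF with cAMP-d2 and Eu cryptate anti-cAMP antibody (665/620 nm ratio).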

Chain of EP2 subtype of the human PGE2 receptor (P43116 whole entry): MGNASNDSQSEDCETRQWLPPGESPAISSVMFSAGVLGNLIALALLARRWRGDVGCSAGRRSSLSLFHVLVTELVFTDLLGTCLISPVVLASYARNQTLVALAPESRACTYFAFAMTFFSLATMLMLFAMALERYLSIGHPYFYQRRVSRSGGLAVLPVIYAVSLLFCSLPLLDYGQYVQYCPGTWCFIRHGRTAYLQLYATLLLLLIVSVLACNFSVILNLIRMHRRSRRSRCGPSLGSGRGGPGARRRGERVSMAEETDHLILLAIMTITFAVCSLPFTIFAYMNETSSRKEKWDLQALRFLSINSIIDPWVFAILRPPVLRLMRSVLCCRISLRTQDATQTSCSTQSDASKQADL
Chain of EP4 subtype of the human PGE2 receptor (P35408 whole entry): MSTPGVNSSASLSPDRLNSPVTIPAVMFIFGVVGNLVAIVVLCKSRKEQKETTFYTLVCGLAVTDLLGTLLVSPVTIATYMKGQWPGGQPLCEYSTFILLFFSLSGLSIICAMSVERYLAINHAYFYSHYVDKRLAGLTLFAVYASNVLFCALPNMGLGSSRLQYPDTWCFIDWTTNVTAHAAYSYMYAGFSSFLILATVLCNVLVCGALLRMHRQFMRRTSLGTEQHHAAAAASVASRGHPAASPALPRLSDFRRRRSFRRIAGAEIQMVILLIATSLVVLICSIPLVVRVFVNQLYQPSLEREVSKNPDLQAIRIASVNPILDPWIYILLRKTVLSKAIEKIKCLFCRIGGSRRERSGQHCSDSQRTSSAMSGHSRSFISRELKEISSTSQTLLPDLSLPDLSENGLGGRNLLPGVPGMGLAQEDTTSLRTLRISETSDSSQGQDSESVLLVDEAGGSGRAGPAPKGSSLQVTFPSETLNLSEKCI

Selectivity hEP2/hDP [1] | Selectivity hEP2/hEP4 [2] | IC50 [3] | SMILES
xxx (xxx > 100) | xxx (xxx > 100) | 5.84 nM | COCCNC(=O)c1ccc2nn(CC3CCN(C(=O)c4ccc(-c5ccc(Cl)cc5OC)cc4)CC3)cc2c1C [Example 381, 2-({1-[(4′-chloro-2′-methoxybiphenyl-4-yl)carbonyl]piperidin-4-yl}methyl)-N-(2-methoxyethyl)-4-methyl-2H-indazol-5-carboxamide]
xxx (xxx > 100) | xxx (xxx > 100) | 19.4 nM | COCCNC(=O)c1ccc2nn(CC3CCN(C(=O)c4ccc(-c5cnc(C(F)(F)F)nc5)cc4)CC3)cc2c1C [Example 382, N-(2-methoxyethyl)-4-methyl-2-[(1-{4-[2-(trifluoromethyl)pyrimidin-5-yl]-benzoyl}piperidin-4-yl)methyl]-2H-indazol-5-carboxamide]
xxx (xxx > 100) | xxx (xxx > 100) | 5.78 nM | COCCNC(=O)c1ccc2nn(CC3CCN(C(=O)c4ccc(-c5ccc(Cl)cc5F)cc4)CC3)cc2c1C [Example 383, 2-({1-[(4′-chloro-2′-fluorobiphenyl-4-yl)carbonyl]piperidin-4-yl}methyl)-N-(2-methoxyethyl)-4-methyl-2H-indazol-5-carboxamide]
xxx (xxx > 100) | xxx (xxx > 100) | 3.95 nM | COCCNC(=O)c1ccc2nn(CC3CCN(C(=O)c4ccc(-c5ccc(F)cc5Cl)cc4)CC3)cc2c1C [Example 384, 2-({1-[(2′-chloro-4′-fluorobiphenyl-4-yl)carbonyl]piperidin-4-yl}methyl)-N-(2-methoxyethyl)-4-methyl-2H-indazol-5-carboxamide]
xxx (xxx > 100) | xxx (xxx > 100) | 13.1 nM | COCCNC(=O)c1ccc2nn(CC3CCN(C(=O)c4ccc(-c5cncc(Cl)c5)cc4)CC3)cc2c1C [Example 385, 2-({1-[4-(5-chloropyridin-3-yl)benzoyl]piperidin-4-yl}methyl)-N-(2-methoxy-ethyl)-4-methyl-2H-indazol-5-carboxamide]
xxx (xxx > 100) | xxx (xxx > 100) | 25.7 nM | COCCNC(=O)c1ccc2nn(CC3CCN(C(=O)c4ccc(-c5cncc(F)c5)cc4)CC3)cc2c1C [Example 386, 2-({1-[4-(5-fluoropyridin-3-yl)benzoyl]piperidin-4-yl}methyl)-N-(2-methoxy-ethyl)-4-methyl-2H-indazol-5-carboxamide]
xxx (xxx > 100) | xxx (xxx > 100) | 13.2 nM | COCCNC(=O)c1ccc2nn(CC3CCN(C(=O)c4ccc(-c5cncc(C(F)(F)F)c5)cc4)CC3)cc2c1C [Example 387, N-(2-methoxyethyl)-4-methyl-2-[(1-{4-[5-(trifluoromethyl)pyridin-3-yl]-benzoyl}piperidin-4-yl)methyl]-2H-indazol-5-carboxamide]
xxx (xxx > 100) | xxx (xxx > 100) | 20.5 nM | COCCNC(=O)c1ccc2nn(CC3CCN(C(=O)c4ccc(-c5ccc(C(C)(C)O)cc5)cc4)CC3)cc2c1C [Example 388, 2-[(1-{[4′-(1-hydroxy-1-methylethyl)biphenyl-4-yl]carbonyl}piperidin-4-yl)-methyl]-N-(2-methoxyethyl)-4-methyl-2H-indazol-5-carboxamide]
xxx (xxx > 100) | xxx (xxx > 100) | 4.51 nM | COCCNC(=O)c1ccc2nn(CC3CCN(C(=O)c4ccc(-c5cc(F)cc(F)c5)cc4)CC3)cc2c1C [Example 389, 2-({1-[(3′,5′-difluorobiphenyl-4-yl)carbonyl]piperidin-4-yl}methyl)-N-(2-methoxyethyl)-4-methyl-2H-indazol-5-carboxamide]
xxx (xxx > 100) | xxx (xxx > 100) | 3.14 nM | COCCNC(=O)c1ccc2nn(CC3CCN(C(=O)c4ccc(-c5ccc(F)cc5)c(C)c4)CC3)cc2c1C [Example 390, 2-({1-[(4′-fluoro-2-methylbiphenyl-4-yl)carbonyl]piperidin-4-yl}methyl)-N-(2-methoxyethyl)-4-methyl-2H-indazol-5-carboxamide]
xxx (xxx > 100) | xxx (xxx > 100) | 6.07 nM | COCCNC(=O)c1ccc2nn(CC3CCN(C(=O)c4ccc(-c5cc(F)cc(F)c5)c(C)c4)CC3)cc2c1C [Example 391, 2-({1-[(3′,5′-difluoro-2-methylbiphenyl-4-yl)carbonyl]piperidin-4-yl}methyl)-N-(2-methoxyethyl)-4-methyl-2H-indazol-5-carboxamide]
xxx (xxx > 100) | xxx (xxx > 100) | 21.8 nM | COCCNC(=O)c1ccc2nn(CC3CCN(C(=O)c4ccc(-c5cccnc5)c(C)c4)CC3)cc2c1C [Example 392, N-(2-methoxyethyl)-4-methyl-2-({1-[3-methyl-4-(3-pyridyl)benzoyl]piperidin-4-yl}methyl)-2H-indazol-5-carboxamide]
xxx (xxx > 100) | xxx (xxx > 100) | 50 nM | COCCNC(=O)c1ccc2nn(CC3CCN(C(=O)c4ccc(-c5ccncc5)c(C)c4)CC3)cc2c1C [Example 393, N-(2-methoxyethyl)-4-methyl-2-({1-[3-methyl-4-(4-pyridyl)benzoyl]piperidin-4-yl}methyl)-2H-indazol-5-carboxamide]
xxx (xxx > 100) | xxx (xxx > 100) | 5.7 nM | COCCNC(=O)c1ccc2nn(CC3CCN(C(=O)c4ccc(-c5ccccc5)c(C)c4)CC3)cc2c1C [Example 394, N-(2-methoxyethyl)-4-methyl-2-({1-[(2-methylbiphenyl-4-yl)carbonyl]piperidin-4-yl}methyl)-2H-indazol-5-carboxamide]
xxx (xxx > 100) | xxx (xxx > 100) | 30.4 nM | Cc1c(C(=O)NCCS(C)(=O)=O)ccc2nn(CC3CCN(C(=O)c4ccc(Br)cc4)CC3)cc12 [Example 395, 2-{[1-(4-bromobenzoyl)piperidin-4-yl]methyl}-N-(2-mesylethyl)-4-methyl-2H-indazol-5-carboxamide]
xxx (xxx > 100) | xxx (xxx > 100) | 18 nM | Cc1c(C(=O)NCCS(C)(=O)=O)ccc2nn(CC3CCN(C(=O)c4ccc(Oc5ccc(C(F)(F)F)cn5)cc4)CC3)cc12 [Example 396, N-(2-mesylethyl)-4-methyl-2-{[1-(4-{[5-(trifluoromethyl)pyridin-2-yl]oxy}-benzoyl)piperidin-4-yl]methyl}-2H-indazol-5-carboxamide]
xxx (xxx > 100) | xxx (xxx > 100) | 12.5 nM | Cc1c(C(=O)NCCS(C)(=O)=O)ccc2nn(CC3CCN(C(=O)c4ccc(Oc5ccc(C(F)(F)F)nc5)cc4)CC3)cc12 [Example 397, N-(2-mesylethyl)-4-methyl-2-{[1-(4-{[6-(trifluoromethyl)pyridin-3-yl]oxy}-benzoyl)piperidin-4-yl]methyl}-2H-indazol-5-carboxamide]
xxx (xxx > 100) | xxx (xxx > 100) | 18.2 nM | Cc1c(C(=O)NCCS(C)(=O)=O)ccc2nn(CC3CCN(C(=O)c4ccc(-c5ccc(F)cc5F)cc4)CC3)cc12 [Example 398, 2-({1-[(2′,4′-difluorobiphenyl-4-yl)carbonyl]piperidin-4-yl}methyl)-N-(2-mesylethyl)-4-methyl-2H-indazol-5-carboxamide]
xx (xx: 10-100) | xx (xx: 10-100) | 593 nM | Cc1c(C(=O)NCCC(C)(C)O)ccc2nn(CC3CCN(C(=O)c4ccc(Cl)cc4)CC3)cc12 [Example 399, 2-{[1-(4-chlorobenzoyl)piperidin-4-yl]methyl}-N-(3-hydroxy-3-methylbutyl)-4-methyl-2H-indazol-5-carboxamide]
xxx (xxx > 100) | xxx (xxx > 100) | 56.1 nM | Cc1c(C(=O)NCCC#N)ccc2nn(CC3CCN(C(=O)c4ccc(Cl)cc4)CC3)cc12 [Example 400, 2-{[1-(4-chlorobenzoyl)piperidin-4-yl]methyl}-N-(2-cyanoethyl)-4-methyl-2H-indazol-5-carboxamide]
xxx (xxx > 100) | xxx (xxx > 100) | 155 nM | Cc1c(C(=O)NCC#N)ccc2nn(CC3CCN(C(=O)c4ccc(Cl)cc4)CC3)cc12 [Example 401, 2-{[1-(4-chlorobenzoyl)piperidin-4-yl]methyl}-N-(cyanomethyl)-4-methyl-2H-indazol-5-carboxamide]
